From ChEMBL document CHEMBL1201861, “Genomics of Drug Sensitity in Cancer screening data, Wellcome Trust Sanger Institute”

Legend:
Assay in all cases: cells
[1] = test system: COR-L88; type: functional, cell-based, Homo sapiens;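 also: growth inhibition of COR-L88 cells, read out with a cell viability assay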
Description: SANGER: Inhibition of human COR-L88 cell growth in a cell viability assay.

[2] = test system: CW-2; type: functional, cell-based, Homo sapiens;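 also: growth inhibition of CW-2 cells, read out by a cell viability assay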
Description: SANGER: Inhibition of human CW-2 cell growth in a cell viability assay.

[3] = test system: DJM-1; type: functional, cell-based, Homo sapiens;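 also: growth inhibition of human DJM-1 cells, read out by a cell viability assay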
Description: SANGER: Inhibition of human DJM-1 cell growth in a cell viability assay.

[4] = test system: EKVX; type: functional, cell-based, Homo sapiens;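 also: growth inhibition of human EKVX cells, read out with a cell viability assay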
Description: SANGER: Inhibition of human EKVX cell growth in a cell viability assay.

[5] = test system: ES5; type: functional, cell-based, Homo sapiens;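 also: growth inhibition of human ES5 cells, read out by a cell viability assay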
Description: SANGER: Inhibition of human ES5 cell growth in a cell viability assay.

[6] = test system: ES8; type: functional, cell-based, Homo sapiens;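 also: growth inhibition of human ES8 cells, read out with a cell viability assay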
Description: SANGER: Inhibition of human ES8 cell growth in a cell viability assay.

[7] = test system: EW-16; type: functional, cell-based, Homo sapiens;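 also: growth inhibition of human EW-16 cells, read out as cell viability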
Description: SANGER: Inhibition of human EW-16 cell growth in a cell viability assay.

[8] = test system: GI-1; type: functional, cell-based, Homo sapiens;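 also: growth inhibition of human GI-1 cells, measured with a cell viability readout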
Description: SANGER: Inhibition of human GI-1 cell growth in a cell viability assay.

[9] = test system: HCC1187; type: functional, cell-based, Homo sapiens;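 also: growth inhibition of HCC1187 cells, read out with a cell viability assay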
Description: SANGER: Inhibition of human HCC1187 cell growth in a cell viability assay.

[10] = test system: HCE-4; type: functional, cell-based, Homo sapiens;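 also: cell viability assay measuring inhibition of growth in the human HCE-4 cell line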
Description: SANGER: Inhibition of human HCE-4 cell growth in a cell viability assay.

[11] = test system: HD-MY-Z; type: functional, cell-based, Homo sapiens;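 also: growth inhibition of HD-MY-Z cells, read out with a cell viability assay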
Description: SANGER: Inhibition of human HD-MY-Z cell growth in a cell viability assay.

[12] = test system: HL-60; type: functional, cell-based, Homo sapiens;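 also: growth inhibition of human HL-60 cells, read out with a cell viability assay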
Description: SANGER: Inhibition of human HL-60 cell growth in a cell viability assay.

[13] = test system: IST-MES1; type: functional, cell-based, Homo sapiens;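 also: growth inhibition of IST-MES1 cells, measured with a cell viability assay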
Description: SANGER: Inhibition of human IST-MES1 cell growth in a cell viability assay.

[14] = test system: K562; type: functional, cell-based, Homo sapiens
Description: SANGER: Inhibition of human K-562 cell growth in a cell viability assay.

[15] = test system: KE-37; type: functional, cell-based, Homo sapiens;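 also: growth inhibition of KE-37 cells, read out with a cell viability assay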
Description: SANGER: Inhibition of human KE-37 cell growth in a cell viability assay.

[16] = test system: KG-1; type: functional, cell-based, Homo sapiens;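 also: growth inhibition of KG-1 cells, read out by a cell viability assay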
Description: SANGER: Inhibition of human KG-1 cell growth in a cell viability assay.

[17] = test system: KINGS-1; type: functional, cell-based, Homo sapiens;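 also: cell viability assay measuring suppression of KINGS-1 cell growth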
Description: SANGER: Inhibition of human KINGS-1 cell growth in a cell viability assay.

[18] = biological target: KM-H2; type: functional, cell-based, Homo sapiens;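 also: growth inhibition of KM-H2 cells, read out by a cell viability assay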
Description: SANGER: Inhibition of human KM-H2 cell growth in a cell viability assay.

[19] = test system: KS-1; type: functional, cell-based, Homo sapiens;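 also: growth inhibition of KS-1 cells, read out with a cell viability assay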
Description: SANGER: Inhibition of human KS-1 cell growth in a cell viability assay.

[20] = test system: KURAMOCHI; type: functional, cell-based, Homo sapiens;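 also: growth inhibition of KURAMOCHI cells, read out with a cell viability assay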
Description: SANGER: Inhibition of human KURAMOCHI cell growth in a cell viability assay.

[21] = test system: LB2241-RCC; type: functional, cell-based, Homo sapiens;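 also: cell viability assay measuring how strongly the cultured human renal carcinoma line is prevented from growing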
Description: SANGER: Inhibition of human LB2241-RCC cell growth in a cell viability assay.

[22] = test system: LB373-MEL-D; type: functional, cell-based, Homo sapiens;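 also: growth inhibition of the cell line, read out in a cell viability assay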
Description: SANGER: Inhibition of human LB373-MEL-D cell growth in a cell viability assay.

[23] = test system: LU-134-A; type: functional, cell-based, Homo sapiens
Description: SANGER: Inhibition of human LU-134-A cell growth in a cell viability assay.

[24] = test system: LU-139; type: functional, cell-based, Homo sapiens
Description: SANGER: Inhibition of human LU-139 cell growth in a cell viability assay.

[25] = test system: MC116; type: functional, cell-based, Homo sapiens;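 also: growth inhibition of MC116 cells, read out with a cell viability assay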
Description: SANGER: Inhibition of human MC116 cell growth in a cell viability assay.

[26] = test system: MEG-01; type: functional, cell-based, Homo sapiens;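 also: growth inhibition of MEG-01 cells, read out by a cell viability assay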
Description: SANGER: Inhibition of human MEG-01 cell growth in a cell viability assay.

[27] = test system: MLMA; type: functional, cell-based, Homo sapiens;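 also: growth inhibition of MLMA cells (human), determined through a cell viability readout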
Description: SANGER: Inhibition of human MLMA cell growth in a cell viability assay.

[28] = test system: MMAC-SF; type: functional, cell-based, Homo sapiens;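 also: growth inhibition of human MMAC-SF cells, read out with a cell viability assay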
Description: SANGER: Inhibition of human MMAC-SF cell growth in a cell viability assay.

[29] = test system: MOLT-4; type: functional, cell-based, Homo sapiens;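 also: growth inhibition of MOLT-4 cells, determined with a cell viability readout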
Description: SANGER: Inhibition of human MOLT-4 cell growth in a cell viability assay.

[30] = test system: Mo; type: functional, cell-based, Homo sapiens
Description: SANGER: Inhibition of human Mo-T cell growth in a cell viability assay.

[31] = test system: NCI-H1155; type: functional, cell-based, Homo sapiens;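 also: cell growth inhibition measured by a viability assay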
Description: SANGER: Inhibition of human NCI-H1155 cell growth in a cell viability assay.

[32] = test system: NCI-H1770; type: functional, cell-based, Homo sapiens;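 also: growth inhibition of NCI-H1770 cells determined with a viability readout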
Description: SANGER: Inhibition of human NCI-H1770 cell growth in a cell viability assay.

[33] = test system: NCI-H1838; type: functional, cell-based, Homo sapiens;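 also: growth inhibition of NCI-H1838 cells, determined with a cell viability readout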
Description: SANGER: Inhibition of human NCI-H1838 cell growth in a cell viability assay.

[34] = test system: NCI-H209; type: functional, cell-based, Homo sapiens;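 also: growth inhibition of human NCI-H209 cells, measured by a cell viability assay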
Description: SANGER: Inhibition of human NCI-H209 cell growth in a cell viability assay.

[35] = test system: NCI-H23; type: functional, cell-based, Homo sapiens;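 also: cell viability assay measuring growth inhibition of NCI-H23 cells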
Description: SANGER: Inhibition of human NCI-H23 cell growth in a cell viability assay.

[36] = test system: NOS-1; type: functional, cell-based, Homo sapiens;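 also: growth inhibition of the human NOS-1 cell line, read out with a cell viability assay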
Description: SANGER: Inhibition of human NOS-1 cell growth in a cell viability assay.

[37] = test system: NTERA-2-cl-D1; type: functional, cell-based, Homo sapiens;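 also: inhibition of cell growth, measured with a cell viability assay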
Description: SANGER: Inhibition of human NTERA-S-cl-D1 cell growth in a cell viability assay.

[38] = test system: OS-RC-2; type: functional, cell-based, Homo sapiens;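 also: growth inhibition of human OS-RC-2 cells, measured by a cell viability assay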
Description: SANGER: Inhibition of human OS-RC-2 cell growth in a cell viability assay.

[39] = test system: PSN1; type: functional, cell-based, Homo sapiens;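 also: suppression of growth of human PSN1 cells, read out by a cell viability assay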
Description: SANGER: Inhibition of human PSN1 cell growth in a cell viability assay.

[40] = test system: RCC10RGB; type: functional, cell-based, Homo sapiens;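 also: growth inhibition of human RCC10RGB cells, read out by a cell viability assay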
Description: SANGER: Inhibition of human RCC10RGB cell growth in a cell viability assay.

[41] = test system: RKO; type: functional, cell-based, Homo sapiens;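 also: growth inhibition of human RKO cells, read out with a cell viability assay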
Description: SANGER: Inhibition of human RKO cell growth in a cell viability assay.

[42] = test system: SF-539; type: functional, cell-based, Homo sapiens;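 also: Read-out is a cell viability assay, with IC50 reflecting inhibition of cell growth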
Description: SANGER: Inhibition of human SF539 cell growth in a cell viability assay.

[43] = test system: SHP77; type: functional, cell-based, Homo sapiens, SHP-77;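 also: growth inhibition of human SHP-77 cells measured by a cell viability assay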
Description: SANGER: Inhibition of human SHP-77 cell growth in a cell viability assay.

[44] = test system: SW 954; type: functional, cell-based, Homo sapiens;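 also: growth inhibition of SW954 human cancer cells, read out as cell viability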
Description: SANGER: Inhibition of human SW954 cell growth in a cell viability assay.

[45] = test system: A388; type: functional, cell-based, Homo sapiens;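 also: growth inhibition of human A388 cells, read out with a cell viability assay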
Description: SANGER: Inhibition of human A388 cell growth in a cell viability assay.

[46] = test system: A4-Fuk; type: functional, cell-based, Homo sapiens;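 also: growth inhibition of A4-Fuk cells, read out by a cell viability assay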
Description: SANGER: Inhibition of human A4-Fuk cell growth in a cell viability assay.

[47] = test system: TK-10; type: functional, cell-based, Homo sapiens;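 also: growth inhibition of TK-10 cells, read out in a cell viability assay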
Description: SANGER: Inhibition of human TK10 cell growth in a cell viability assay.

[48] = test system: no-10; type: functional, cell-based, Homo sapiens;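 also: growth inhibition of no-10 cells, read out with a cell viability assay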
Description: SANGER: Inhibition of human no-10 cell growth in a cell viability assay.

[49] = test system: COLO-320-HSR; type: functional, cell-based, Homo sapiens;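 also: growth inhibition of COLO-320-HSR cells, determined with a cell viability assay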
Description: SANGER: Inhibition of human COLO-320-HSR cell growth in a cell viability assay.

## BLEOMYCIN
[1]; cor-l88
  IC50: 73.4 µM
[2]; cw-2
  IC50: 564 µM
[3]; djm-1
  IC50: 1.13 µM
[4]; ekvx
  IC50: 413 µM
[5]; es5
  IC50: 0.505 µM
[6]; es8
  IC50: 1.4 µM
[7]; ew-16
  IC50: 0.00685 µM
[8]; gi-1
  IC50: 1.2 µM
[9]; hcc1187
  IC50: 32.9 µM
[10]; hce-4
  IC50: 0.453 µM
[11]; hd-my-z
  IC50: 0.56 µM
[12]; hl-60
  IC50: 35.3 µM
[13]; ist-mes1
  IC50: 206 µM
[14]; k562
  IC50: 126 µM
[15]; ke-37
  IC50: 25.9 µM
[16]; kg-1
  IC50: 0.131 µM
[17]; kings-1
  IC50: 1270 µM
[18]; km-h2
  IC50: 6.97 µM
[19]; ks-1
  IC50: 0.0108 µM
[20]; kuramochi
  IC50: 2.04 µM
[21]; lb2241-rcc
  IC50: 0.738 µM
[22]; lb373-mel-d
  IC50: 56.4 µM
[23]; lu-134-a
  IC50: 41.8 µM
[24]; lu-139
  IC50: 3440 µM
[25]; mc116
  IC50: 2.11 µM
[26]; meg-01
  IC50: 0.395 µM
[27]; mlma
  IC50: 0.87 µM
[28]; mmac-sf
  IC50: 21.3 µM
[29]; molt-4
  IC50: 1.77 µM
[30]; mo
  IC50: 103 µM
[31]; nci-h1155
  IC50: 73.2 µM
[32]; nci-h1770
  IC50: 5.29 µM
[33]; nci-h1838
  IC50: 24.5 µM
[34]; nci-h209
  IC50: 34.3 µM
[35]; nci-h23
  IC50: 2.47 µM
[36]; nos-1
  IC50: 1.31 µM
[37]; ntera-2-cl-d1
  IC50: 0.000139 µM
[38]; os-rc-2
  IC50: 3.02 µM
[39]; psn1
  IC50: 0.139 µM
[40]; rcc10rgb
  IC50: 70.6 µM
[41]; rko
  IC50: 0.524 µM
[42]; sf-539
  IC50: 0.393 µM
[43]; shp-77
  IC50: 142 µM
[44]; sw 954
  IC50: 0.00957 µM
[45]; a388
  IC50: 0.877 µM
[46]; a4-fuk
  IC50: 25.3 µM
[47]; tk-10
  IC50: 0.999 µM
[48]
  IC50: 27.1 µM
[49]; colo-320-hsr
  IC50: 3.43 µM

## Nc1cccc2c1CN(C1CCC(=O)NC1=O)C2=O (stereo not drawn) [LENALIDOMIDE]
[1]; Homo sapiens, COR-L88
  IC50: > 5 µM
[2]; Homo sapiens, CW-2
  IC50: > 5 µM
[3]; Homo sapiens, DJM-1
  IC50: > 5 µM
[4]; Homo sapiens, EKVX
  IC50: > 5 µM
[5]; Homo sapiens, ES5
  IC50: > 5 µM
[6]; Homo sapiens, ES8
  IC50: > 5 µM
[7]; Homo sapiens, EW-16
  IC50: > 5 µM
[8]; Homo sapiens, GI-1
  IC50: > 5 µM
[9]; Homo sapiens, HCC1187
  IC50: > 5 µM
[10]; Homo sapiens, HCE-4
  IC50: > 5 µM
[11]; Homo sapiens, HD-MY-Z
  IC50: > 5 µM
[12]; Homo sapiens, HL-60
  IC50: > 5 µM
[13]; Homo sapiens, IST-MES1
  IC50: > 5 µM
[14]; Homo sapiens, K562
  IC50: > 5 µM
[15]; Homo sapiens, KE-37
  IC50: > 5 µM
[16]; Homo sapiens, KG-1
  IC50: > 5 µM
[17]; Homo sapiens, KINGS-1
  IC50: > 5 µM
[18]; Homo sapiens, KM-H2
  IC50: > 5 µM
[19]; Homo sapiens, KS-1
  IC50: > 5 µM
[20]; Homo sapiens, KURAMOCHI
  IC50: > 5 µM
[21]; Homo sapiens, LB2241-RCC
  IC50: > 5 µM
[22]; Homo sapiens, LB373-MEL-D
  IC50: > 5 µM
[23]; Homo sapiens, LU-134-A
  IC50: > 5 µM
[24]; Homo sapiens, LU-139
  IC50: > 5 µM
[25]; Homo sapiens, MC116
  IC50: > 5 µM
[26]; Homo sapiens, MEG-01
  IC50: > 5 µM
[27]; Homo sapiens, MLMA
  IC50: > 5 µM
[28]; Homo sapiens, MMAC-SF
  IC50: > 5 µM
[29]; Homo sapiens, MOLT-4
  IC50: > 5 µM
[30]; Homo sapiens, Mo
  IC50: > 5 µM
[31]; Homo sapiens, NCI-H1155
  IC50: > 5 µM
[32]; Homo sapiens, NCI-H1770
  IC50: > 5 µM
[33]; Homo sapiens, NCI-H1838
  IC50: > 5 µM
[34]; Homo sapiens, NCI-H209
  IC50: > 5 µM
[35]; Homo sapiens, NCI-H23
  IC50: > 5 µM
[36]; Homo sapiens, NOS-1
  IC50: > 5 µM
[37]; Homo sapiens, NTERA-2-cl-D1
  IC50: > 5 µM
[38]; Homo sapiens, OS-RC-2
  IC50: > 5 µM
[39]; Homo sapiens, PSN1
  IC50: > 5 µM
[40]; Homo sapiens, RCC10RGB
  IC50: > 5 µM
[41]; Homo sapiens, RKO
  IC50: > 5 µM
[42]; Homo sapiens, SF-539
  IC50: > 5 µM
[43]; Homo sapiens, SHP77
  IC50: > 5 µM
[44]; Homo sapiens, SW 954
  IC50: > 5 µM
[45]; Homo sapiens, A388
  IC50: > 5 µM
[46]; Homo sapiens, A4-Fuk
  IC50: > 5 µM
[47]; Homo sapiens, TK-10
  IC50: > 5 µM
[48]; Homo sapiens
  IC50: > 5 µM
[49]; Homo sapiens, COLO-320-HSR
  IC50: > 5 µM
